The structures appear in SMILES notation.

The data set in a line: Human HepG2 cell viability assay in 384 well format. Also on record: dose 125 nL, time 70.5 hour; concentration not given beside the values. To be noted: HepG2 cells, read-out: Inhibition. In kind it is toxicity, cell-based.
For `Cc1nc(C)n(CC2CCCN2CC(=O)Nc2c(C)n[nH]c2C)n1` (configuration not stated), the cytotoxicity at 70.5 h was -1.18%.

For `COCc1ccccc1CNC(=O)CN1CCCC1c1noc(C)n1` (configuration not stated), the cytotoxicity at 70.5 h is -2.27%.

For `Cc1cccc(OCCNC(=O)CN2CCCC2c2noc(C)n2)c1` (configuration not stated), the cytotoxicity at 70.5 h is -4.91%.

For `Cn1cc(Cl)cc1C(=O)N1CCN(Cc2cccs2)CC1`, the cytotoxicity at 70.5 h was -12.6%.

As for `Cc1oc(C)c(C(=O)NCc2cccnc2)c1C`, the cytotoxicity at 70.5 h is -14.1%.

In the case of `Cc1oc(C)c(C(=O)NCc2ccccc2CN(C)C)c1C`, the cytotoxicity at 70.5 h worked out at 16.8%.

As for `Cc1ccc(C(=O)NCCCNc2ccc(C(F)(F)F)cn2)cc1`, the cytotoxicity at 70.5 h was -9.05%.

For the molecule `O=C(NCCCNc1ccc(C(F)(F)F)cn1)c1ccccc1`, the cytotoxicity at 70.5 h is -8.08%.

Turning to `Nc1nccnc1C(=O)NCCCNc1ccc(C(F)(F)F)cn1`, the cytotoxicity at 70.5 h worked out at 2.59%.

As to `CN(C)c1ccc(C(=O)NCCCNc2ccc(C(F)(F)F)cn2)cc1`, the cytotoxicity at 70.5 h is -13%.

As for `CC(C)C(=O)NCCNC(=O)CCOc1cccc(F)c1`, the cytotoxicity at 70.5 h was -11.3%.

With `CCOc1ncccc1CNC(=O)c1c(C)oc(C)c1C`, the cytotoxicity at 70.5 h was -9.43%.

On to `CCCc1nnc(NC(=O)Cc2c(C)nc(C)[nH]c2=O)s1`, for which the cytotoxicity at 70.5 h was -6.43%.

As for `CCSc1ccc(NC(=O)N2CCCC2c2ccncc2)cn1` (configuration not stated), the cytotoxicity at 70.5 h was -8.21%.

On to `O=C(CN1CCOC(Cn2cccn2)C1)Nc1ccncc1` (configuration not stated), for which the cytotoxicity at 70.5 h is -3.63%.

Turning to `Cc1nc2ccccc2nc1CN1CCCC1Cn1cccn1` (configuration not stated), the cytotoxicity at 70.5 h stood at 20.6%.

`Cc1nc(CN2CCCC(N(C)CC(=O)Nc3cccnc3)C2)no1` (configuration not stated): the cytotoxicity at 70.5 h is 15.1%.

For `CC(C)c1nc(CN2CCC(CO)CC2)cs1`, the cytotoxicity at 70.5 h was determined as 34.5%.

On to `CCCN1CCN(C(=O)Cc2nc(-c3ccco3)oc2C)CC1`, for which the cytotoxicity at 70.5 h is -7.9%.

As for `Cc1nc(CN2CCCC(N(C)Cc3nc(CC(C)C)no3)C2)no1` (configuration not stated), the cytotoxicity at 70.5 h was -9.14%.

With `Cc1nc(CN(C)C2CCN(Cc3c(C)noc3C)C2)no1` (configuration not stated), the cytotoxicity at 70.5 h is -8.91%.

In the case of `CN(Cc1cccc(F)c1)C(=O)CS(=O)(=O)Cc1ccc(Cl)c(Cl)c1`, the cytotoxicity at 70.5 h was -11.2%.

Turning to `Cc1csc(CNC(=O)NCc2ccc3c(c2)OCCO3)n1`, the cytotoxicity at 70.5 h was -14.3%.

As for `Cc1csc(CNC(=O)N(C)Cc2ccc3c(c2)OCO3)n1`, the cytotoxicity at 70.5 h is -9.49%.

`CCOc1ccc(CC(CNC(=O)c2ccoc2C)C(N)=O)cc1` (configuration not stated): the cytotoxicity at 70.5 h is -10.1%.

On to `Cc1cccc(CS(=O)(=O)CC(=O)N(C)Cc2ccccc2F)c1`, for which the cytotoxicity at 70.5 h was -6.9%.

For `CC(C)c1nccn1C1CCCN(C(=O)c2ccc3[nH]cnc3c2)C1` (configuration not stated), the cytotoxicity at 70.5 h stood at 8.82%.

`CCCc1ccc(C(=O)N2CCn3c(nnc3C(C)C)C2)cc1`: the cytotoxicity at 70.5 h is -5.86%.

With `O=C(Nc1cc(F)ccc1OCC1CCCO1)c1ccoc1` (configuration not stated), the cytotoxicity at 70.5 h is -2.66%.

On to `COCCn1cc(C(=O)N2CCCC(n3cncn3)C2)ccc1=O` (configuration not stated), for which the cytotoxicity at 70.5 h came to 8.17%.

Turning to `O=C(Nc1ccccc1OCC1CCCCO1)c1ccc(O)nc1` (configuration not stated), the cytotoxicity at 70.5 h is -13%.

Regarding `COCc1nc(CN2CCOC(CN(C)c3cccnn3)C2)cs1` (configuration not stated), the cytotoxicity at 70.5 h was 2.04%.

Consider `COc1ccc(-c2noc(CN3CC(n4cccn4)C3)n2)c(OC)c1`, for which the cytotoxicity at 70.5 h was -7.32%.

In the case of `Cc1nc(C)c(CN2CCOC(CN(C)c3cccnn3)C2)s1` (configuration not stated), the cytotoxicity at 70.5 h was -8.03%.

As to `CCc1nnsc1C(=O)N1CCCN(Cc2ccc(F)cc2)CC1`, the cytotoxicity at 70.5 h was -9.04%.

`CCc1nnsc1C(=O)N1CCCN(Cc2cnn(CC)c2)CC1`: the cytotoxicity at 70.5 h was -7.53%.

`O=C(Cc1ccc2c(c1)OCCO2)N1CCCC(n2cncn2)C1` (configuration not stated): the cytotoxicity at 70.5 h is -9.12%.

Take `CCc1nc(C)c(C(=O)N2CCCN(Cc3cnn(C)c3)CC2)s1`: the cytotoxicity at 70.5 h is -9%.

Consider `Cc1nc(C2CCCN2Cc2nnc(Cc3ccccc3)o2)no1` (configuration not stated), for which the cytotoxicity at 70.5 h was 2.42%.

With `Cc1nnc(N2CCC(CCN(C)C)CC2)c(C#N)c1C`, the cytotoxicity at 70.5 h was -11.2%.

Consider `CC(C)C(=O)NCc1ccc(-n2cncn2)nc1`, for which the cytotoxicity at 70.5 h is -4.44%.

With `CCc1nnsc1C(=O)N1CCCN(Cc2ccc(C)cc2)CC1`, the cytotoxicity at 70.5 h was -8.18%.

`CCCS(=O)(=O)NC1CCN(c2nnc(C)c(C)c2C#N)CC1`: the cytotoxicity at 70.5 h was -6.18%.

On to `CC(=O)Nc1nc(C(=O)NC(C)c2cccnc2)cs1` (configuration not stated), for which the cytotoxicity at 70.5 h was -6.5%.

Take `Cc1cc(CN(C)C(=O)NCC2CCS(=O)(=O)C2)no1` (configuration not stated): the cytotoxicity at 70.5 h was -9.21%.

Regarding `CS(=O)(=O)c1ccc(CNC(=O)NCC2CCOC2)cc1` (configuration not stated), the cytotoxicity at 70.5 h was determined as 4.53%.

For the molecule `CCC(C)C(=O)NCc1ccc(-n2cncn2)nc1` (configuration not stated), the cytotoxicity at 70.5 h is -6.68%.

For the molecule `CCC(C)C(=O)NCc1cccc(N2CCCCC2=O)c1` (configuration not stated), the cytotoxicity at 70.5 h was -4.37%.

`CC(C(=O)NCc1cccc(N2CCCC2=O)c1)S(C)(=O)=O` (configuration not stated): the cytotoxicity at 70.5 h stood at 0.0426%.

`O=C(CCc1ccc2c(c1)OCO2)N1CCCC(n2cccn2)C1` (configuration not stated): the cytotoxicity at 70.5 h turned out to be 13.3%.

For the molecule `CCOc1ccccc1-c1noc(CN2CCOC(CN(C)C)C2)n1` (configuration not stated), the cytotoxicity at 70.5 h was -10.8%.

Regarding `Cc1nnc(N2CCCC(CS(N)(=O)=O)C2)c(C#N)c1C` (configuration not stated), the cytotoxicity at 70.5 h was -2.95%.

In the case of `CCCOCC(=O)N1CCCN(Cc2csc(CC)n2)CC1`, the cytotoxicity at 70.5 h was 6.02%.

For `Cc1ccccc1CCNC(=O)N1CCCC(c2nncn2C)C1` (configuration not stated), the cytotoxicity at 70.5 h was -9.14%.

For the molecule `Cc1ccc(C)c(NC(=O)C(C)N2CCCN(c3nccs3)CC2)c1` (configuration not stated), the cytotoxicity at 70.5 h is -6.54%.

As to `CCn1cnnc1C1CCN(C(=O)COc2ccc(Cl)cc2)CC1`, the cytotoxicity at 70.5 h was -9.99%.

Consider `CCc1nc(CN2CCN(C(=O)c3cc(C)no3)CC2)cs1`, for which the cytotoxicity at 70.5 h was -8.13%.

For `CCc1noc(C)c1C(=O)N1CCCN(Cc2csc(C)n2)CC1`, the cytotoxicity at 70.5 h is -9.45%.

As for `CCc1nc(CN2CCCN(C(=O)c3cn[nH]c3C)CC2)cs1`, the cytotoxicity at 70.5 h is -6.19%.

Consider `CCOCC(O)CN1CCN(C(=O)c2cccc3[nH]ncc23)CC1` (configuration not stated), for which the cytotoxicity at 70.5 h is -4.87%.

As to `CCc1nc(CN2CCCN(C(=O)COC)CC2)cs1`, the cytotoxicity at 70.5 h is -6.47%.

On to `COc1ccc(Cl)cc1C(=O)N(C)Cc1cc(C)on1`, for which the cytotoxicity at 70.5 h was -3.26%.

For the molecule `CC(C)c1cc(C(=O)NCCn2nc3ccccn3c2=O)n[nH]1`, the cytotoxicity at 70.5 h is -4.09%.

As to `CC(C)Cc1cc(C(=O)NCCn2nc3ccccn3c2=O)[nH]n1`, the cytotoxicity at 70.5 h is -3.87%.

With `CCN(Cc1nc2c(cnn2C)c(=O)[nH]1)Cc1ccccc1C`, the cytotoxicity at 70.5 h came to 1.06%.

As for `CC(C)(O)CN1CCN(C(=O)c2cccc3[nH]ncc23)CC1`, the cytotoxicity at 70.5 h is -1.27%.

In the case of `Cc1nc(CC(=O)N2CCC(Nc3cccnn3)CC2)cs1`, the cytotoxicity at 70.5 h was -6.73%.

Consider `O=C(CN1CCN(c2ccc3nncn3n2)CC1)NC1CCCCC1`, for which the cytotoxicity at 70.5 h is -11.1%.

Take `Cc1noc(C(C)N2CCN(Cc3cccc(C#N)c3)CC2)n1` (configuration not stated): the cytotoxicity at 70.5 h was -5.03%.

Consider `CC(C)c1noc(C(C)N2CCN(Cc3cccc(C#N)c3)CC2)n1` (configuration not stated), for which the cytotoxicity at 70.5 h is -11%.

Consider `CCn1nc2c(cc1=O)CN(Cc1nnc(C3CC3)o1)CC2`, for which the cytotoxicity at 70.5 h was 2.46%.

Regarding `c1coc(-c2nc(CN3CCn4c(nnc4C4CC4)C3)cs2)c1`, the cytotoxicity at 70.5 h was -8.26%.

Turning to `Cn1nc2c(cc1=O)CN(Cc1nc(C3CC3)no1)CC2`, the cytotoxicity at 70.5 h is -8.63%.

Regarding `CCCOc1cccc(NS(=O)(=O)c2cc(C(=O)O)cs2)c1`, the cytotoxicity at 70.5 h was found to be 4.51%.

As for `COc1c(C2CCCN2Cc2csc(C(C)C)n2)c(C)nn1C` (configuration not stated), the cytotoxicity at 70.5 h came to 41%.

Turning to `Cc1nc(CN2CCCC(NCc3c(C)nc4sccn34)C2)no1` (configuration not stated), the cytotoxicity at 70.5 h stood at 1.63%.

Take `N#Cc1cccc(S(=O)(=O)NC(=O)COC2CCCC2)c1`: the cytotoxicity at 70.5 h is 11.3%.

For the molecule `CC(C)(C)c1nc(CN2CCCC2Cn2cccn2)no1` (configuration not stated), the cytotoxicity at 70.5 h turned out to be 12.2%.

In the case of `CNS(=O)(=O)Cc1ccc(CNC(=O)c2cccc(C)n2)cc1`, the cytotoxicity at 70.5 h was -1.09%.

Take `COc1cc(CNC(=O)c2c(C)noc2C(C)C)ccn1`: the cytotoxicity at 70.5 h was -2.32%.

In the case of `Cc1noc(C(C)C)c1C(=O)NCc1cccc(N(C)C)c1`, the cytotoxicity at 70.5 h came to 12.6%.

Regarding `Cc1cccnc1NC(=O)NCc1ccc(N2CCNC(=O)C2)cc1`, the cytotoxicity at 70.5 h was -10.1%.

For `COc1cccc(S(=O)(=O)NC(=O)COC2CCCC2)c1`, the cytotoxicity at 70.5 h was -3.13%.

`COc1ccccc1CC1CCCN(CC(=O)N2CCOCC2)C1` (configuration not stated): the cytotoxicity at 70.5 h is -6.05%.

For the molecule `CCc1nnsc1C(=O)N1CCCN(Cc2nccn2C)CC1`, the cytotoxicity at 70.5 h was -21.7%.

On to `CCc1nnsc1C(=O)N1CCCN(Cc2cnn(C)c2)CC1`, for which the cytotoxicity at 70.5 h is -27.3%.

Regarding `CN(Cc1ncc(-c2ccccc2)o1)CC1CCCN1c1cccnn1` (configuration not stated), the cytotoxicity at 70.5 h was -10.2%.

For `Cc1nc(C)n(CC2CCCCN2CC(=O)N(C)Cc2ccco2)n1` (configuration not stated), the cytotoxicity at 70.5 h is -1.35%.

Take `CCc1nc(CN2CCCN(C(=O)c3cn[nH]c3CC)CC2)cs1`: the cytotoxicity at 70.5 h was determined as 12.4%.

With `Cc1n[nH]c(=O)c2c(NC(=O)CN3CCC(O)CC3)oc(C)c12`, the cytotoxicity at 70.5 h turned out to be 7.13%.

Regarding `Cc1ccc(NC(=O)C(C)N2CCCN(c3nccs3)CC2)c(C)c1` (configuration not stated), the cytotoxicity at 70.5 h was -7.1%.

As to `Cc1ccccc1CN(C)Cc1nc2c(cnn2C)c(=O)[nH]1`, the cytotoxicity at 70.5 h is -7.81%.

As for `O=C(NCCn1nc2ccccn2c1=O)c1cccc2[nH]ncc12`, the cytotoxicity at 70.5 h is -16.6%.

Turning to `CN(Cc1nc2c(cnn2C)c(=O)[nH]1)Cc1ccc(F)cc1F`, the cytotoxicity at 70.5 h is -10.6%.

For `Cc1ccc2cc(C(=O)NCCn3nc4ccccn4c3=O)[nH]c2c1`, the cytotoxicity at 70.5 h is 8.99%.

As to `CC(C(=O)Nc1ncccn1)N1CCCN(c2nccs2)CC1` (configuration not stated), the cytotoxicity at 70.5 h is -13.8%.

For the molecule `COc1ccc(F)cc1C(=O)N(C)Cc1cc(C)on1`, the cytotoxicity at 70.5 h is -15.7%.

With `CCc1nnc2n1CCN(Cc1csc(-c3ccc(C)o3)n1)C2`, the cytotoxicity at 70.5 h was -33.2%.

In the case of `CC(C)(C)C(O)CN1CCN(C(=O)c2cccc3[nH]ncc23)CC1` (configuration not stated), the cytotoxicity at 70.5 h was -3.16%.

For `CCc1nc(CN2CCCN(C(=O)CCSC)CC2)cs1`, the cytotoxicity at 70.5 h was -15.8%.

In the case of `COCc1cccc(NS(=O)(=O)c2cc(C(=O)O)cs2)c1`, the cytotoxicity at 70.5 h was -12.7%.

Consider `COc1ccccc1OCCNCc1c(C)nn(C)c1N(C)C`, for which the cytotoxicity at 70.5 h was -3.32%.

Values taken from ChEMBL document CHEMBL3507680, “University of Dundee, Gates Library screen for HepG2 cell viability”.
